Laboratory results: US6638973B2, “Taxane formulations” (FSU Research Foundation, Inc., priority 2000, dated 2003)

What follows are compounds tested on HCT116 cells (assay: In vitro cytotoxicity measured by the cell colony formation assay). Settings: HCT116 cells, 72 h drug incubation, colonies counted after 7 days; ID50 = drug concentration producing 50% inhibition of colony formation; read-out: IN VITRO ID 50 (nm) HCT116.
Assay type: cell-based
Outline: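 Colony-forming survival was scored 7 days after a 72 h, 37 °C compound exposure followed by washout into fresh medium.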

Structure (SMILES) | IC50 [nM]
CCNC(=O)O[C@H]1C[C@H]2OC[C@@]2(OC(C)=O)C2[C@H](OC(=O)c3ccccc3)[C@]3(O)C[C@H](OC(=O)[C@H](O)[C@@H](NC(=O)C=C(C)C)c4ccco4)C(C)=C([C@@H](O)C(=O)[C@@]21C)C3(C)C (stereo partly shown) [Compound 5588] | < 1

Same assay, conditions: HCT116 cells, 72 h incubation with drug, colonies counted after 7 days; ID50 = drug concentration producing 50% inhibition of colony formation; read-out: IN VITRO ID 50 (nm) HCT116

Structure (SMILES) | IC50 [nM]
CCOC(=O)O[C@H]1C[C@H]2OC[C@@]2(OC(C)=O)C2[C@H](OC(=O)c3ccccc3)[C@]3(O)C[C@H](OC(=O)[C@H](O)[C@@H](NC(=O)c4ccccc4)c4cccs4)C(C)=C([C@@H](O)C(=O)[C@@]21C)C3(C)C (stereo partly shown) [Compound 4188] | < 10
CC(=O)O[C@@]12CO[C@@H]1C[C@H](OC(=O)OCc1ccccc1)[C@@]1(C)C(=O)[C@H](O)C3=C(C)[C@@H](OC(=O)[C@H](O)[C@@H](NC(=O)OC(C)(C)C)c4ccco4)C[C@@](O)([C@@H](OC(=O)c4ccccc4)C12)C3(C)C (stereo partly shown) [Compound 5433] | < 1
CCOC(=O)O[C@H]1C(=O)[C@@]2(C)C([C@H](OC(=O)c3ccccc3)[C@]3(O)C[C@H](OC(=O)[C@H](O)[C@H](C=C(C)C)NC(=O)OC(C)(C)C)C(C)=C1C3(C)C)[C@]1(OC(C)=O)CO[C@@H]1C[C@@H]2O (stereo partly shown) [Compound 1781] | < 1
C/C=C/C(=O)N[C@@H](c1ccsc1)[C@@H](O)C(=O)O[C@H]1C[C@@]2(O)[C@@H](OC(=O)c3ccccc3)C3[C@](C)(C(=O)[C@H](O)C(=C1C)C2(C)C)[C@@H](OC(=O)OCC)C[C@H]1OC[C@@]31OC(C)=O (stereo partly shown) [Compound 4999] | < 1
CCOC(=O)O[C@H]1C[C@H]2OC[C@@]2(OC(C)=O)C2[C@H](OC(=O)c3ccccc3)[C@]3(O)C[C@H](OC(=O)[C@H](O)[C@@H](NC(=O)c4cccs4)c4cccs4)C(C)=C([C@@H](O)C(=O)[C@@]21C)C3(C)C (stereo partly shown) [Compound 4455] | < 1
COC(=O)O[C@H]1C[C@H]2OC[C@@]2(OC(C)=O)C2[C@H](OC(=O)c3ccccc3)[C@]3(O)C[C@H](OC(=O)[C@H](O)[C@@H](NC(=O)OC(C)C)c4cccs4)C(C)=C([C@@H](O)C(=O)[C@@]21C)C3(C)C (stereo partly shown) [Compound 4144] | < 1
CCOC(=O)O[C@H]1C(=O)[C@@]2(C)C([C@H](OC(=O)c3ccccc3)[C@]3(O)C[C@H](OC(=O)[C@H](O)[C@H](C=C(C)C)NC(=O)OC(C)(C)C)C(C)=C1C3(C)C)[C@]1(OC(C)=O)CO[C@@H]1C[C@@H]2O (stereo partly shown) [Compound 1788] | < 1
CCOC(=O)O[C@H]1C(=O)[C@@]2(C)C([C@H](OC(=O)c3ccccc3)[C@]3(O)C[C@H](OC(=O)[C@H](O)[C@@H](NC(=O)OC(C)(C)C)C4CCC4)C(C)=C1C3(C)C)[C@]1(OC(C)=O)CO[C@@H]1C[C@@H]2O (stereo partly shown) [Compound 1855] | < 10
C/C=C/C(=O)N[C@@H](c1cccs1)[C@@H](O)C(=O)O[C@H]1C[C@@]2(O)[C@@H](OC(=O)c3ccccc3)C3[C@](C)(C(=O)[C@H](OC(=O)OCC)C(=C1C)C2(C)C)[C@@H](O)C[C@H]1OC[C@@]31OC(C)=O (stereo partly shown) [Compound 3243] | < 1
C/C=C/C(=O)N[C@@H](c1cccs1)[C@@H](O)C(=O)O[C@H]1C[C@@]2(O)[C@@H](OC(=O)c3ccccc3)C3[C@](C)(C(=O)[C@H](O)C(=C1C)C2(C)C)[C@@H](OC(=O)OCC)C[C@H]1OC[C@@]31OC(C)=O (stereo partly shown) [Compound 4855] | < 1

Same assay, conditions: HCT116 colony formation; 72 h drug incubation, colonies counted after 7 days; Example 5, C-7 ester/C-10 hydroxy taxanes; read-out: IN VITRO ID 50 (nm) HCT116

Structure (SMILES) | IC50 [nM]
CCCC(=O)O[C@H]1C[C@H]2OC[C@@]2(OC(C)=O)C2[C@H](OC(=O)c3ccccc3)[C@]3(O)C[C@H](OC(=O)[C@H](O)[C@@H](NC(=O)c4ccccc4)c4cccs4)C(C)=C([C@@H](O)C(=O)[C@@]21C)C3(C)C (stereo partly shown) [Compound 4414] | < 1
CCCC(=O)O[C@H]1C[C@H]2OC[C@@]2(OC(C)=O)C2[C@H](OC(=O)c3ccccc3)[C@]3(O)C[C@H](OC(=O)[C@H](O)[C@@H](NC(=O)c4ccccc4)c4cccs4)C(C)=C([C@@H](O)C(=O)[C@@]21C)C3(C)C (stereo partly shown) [Compound 4175] | < 10
CCC(=O)O[C@H]1C[C@H]2OC[C@@]2(OC(C)=O)C2[C@H](OC(=O)c3ccccc3)[C@]3(O)C[C@H](OC(=O)[C@H](O)[C@@H](NC(=O)OC(C)C)c4ccco4)C(C)=C([C@@H](O)C(=O)[C@@]21C)C3(C)C (stereo partly shown) [Compound 3444] | < 1
C/C=C/C(=O)N[C@@H](c1ccoc1)[C@@H](O)C(=O)O[C@H]1C[C@@]2(O)[C@@H](OC(=O)c3ccccc3)C3[C@](C)(C(=O)[C@H](O)C(=C1C)C2(C)C)[C@@H](OC(=O)CCC)C[C@H]1OC[C@@]31OC(C)=O (stereo partly shown) [Compound 4939] | < 1
CCCC(=O)O[C@H]1C[C@H]2OC[C@@]2(OC(C)=O)C2[C@H](OC(=O)c3ccccc3)[C@]3(O)C[C@H](OC(=O)[C@H](O)[C@@H](NC(=O)OC(C)(C)C)c4ccco4)C(C)=C([C@@H](O)C(=O)[C@@]21C)C3(C)C (stereo partly shown) [Compound 4499] | < 1

Same assay, conditions: HCT116 colony formation; 72 h drug incubation, colonies counted after 7 days; Example 10, C-10 ester/C-7 hydroxy taxanes; read-out: IN VITRO ID 50 (nm) HCT116

Structure (SMILES) | IC50 [nM]
C/C=C/C(=O)N[C@@H](c1ccco1)[C@@H](O)C(=O)O[C@H]1C[C@@]2(O)[C@@H](OC(=O)c3ccccc3)C3[C@](C)(C(=O)[C@H](OC(=O)C4CC4)C(=C1C)C2(C)C)[C@@H](O)C[C@H]1OC[C@@]31OC(C)=O (stereo partly shown) [Compound 3971] | < 1
CCCC(=O)N[C@@H](c1ccco1)[C@@H](O)C(=O)O[C@H]1C[C@@]2(O)[C@@H](OC(=O)c3ccccc3)C3[C@](C)(C(=O)[C@H](OC(=O)C4CC4)C(=C1C)C2(C)C)[C@@H](O)C[C@H]1OC[C@@]31OC(C)=O (stereo partly shown) [Compound 4062] | < 1
C/C=C/C(=O)N[C@@H](c1cccs1)[C@@H](O)C(=O)O[C@H]1C[C@@]2(O)[C@@H](OC(=O)c3ccccc3)C3[C@](C)(C(=O)[C@H](OC(=O)C4CC4)C(=C1C)C2(C)C)[C@@H](O)C[C@H]1OC[C@@]31OC(C)=O (stereo partly shown) [Compound 3513] | < 1
CC(=O)OC12COC1CC(O)C1(C)C(=O)C(OC(=O)c3cccs3)C3=C(C)C(OC(=O)C(O)C(NC(=O)OC(C)(C)C)c4ccco4)CC(O)(C(OC(=O)c4ccccc4)C21)C3(C)C (stereo not shown) [Compound 1892] | < 1
CC(=O)O[C@@]12CO[C@@H]1C[C@H](O)[C@@]1(C)C(=O)[C@H](OC(=O)C3CC3)C3=C(C)[C@@H](OC(=O)[C@H](O)[C@@H](NC(=O)OC(C)(C)C)c4ccccc4)C[C@@](O)([C@@H](OC(=O)c4ccccc4)C12)C3(C)C (stereo partly shown) [Compound 0882] | < 1
C/C=C/C(=O)O[C@H]1C(=O)[C@@]2(C)C([C@H](OC(=O)c3ccccc3)[C@]3(O)C[C@H](OC(=O)[C@H](O)[C@@H](NC(=O)OC(C)(C)C)c4ccccn4)C(C)=C1C3(C)C)[C@]1(OC(C)=O)CO[C@@H]1C[C@@H]2O (stereo partly shown) [Compound 2348] | < 1
CCC(=O)O[C@H]1C(=O)[C@@]2(C)C([C@H](OC(=O)c3ccccc3)[C@]3(O)C[C@H](OC(=O)[C@H](O)[C@@H](NC(=O)C=C(C)C)c4cccs4)C(C)=C1C3(C)C)[C@]1(OC(C)=O)CO[C@@H]1C[C@@H]2O (stereo partly shown) [Compound 4335] | < 1
C/C=C/C(=O)N[C@@H](c1cccs1)[C@@H](O)C(=O)O[C@H]1C[C@@]2(O)[C@@H](OC(=O)c3ccccc3)C3[C@](C)(C(=O)[C@H](OC(=O)CCC)C(=C1C)C2(C)C)[C@@H](O)C[C@H]1OC[C@@]31OC(C)=O (stereo partly shown) [Compound 3595] | < 1
CCCC(=O)N[C@@H](c1cccs1)[C@@H](O)C(=O)O[C@H]1C[C@@]2(O)[C@@H](OC(=O)c3ccccc3)C3[C@](C)(C(=O)[C@H](OC(=O)C4CC4)C(=C1C)C2(C)C)[C@@H](O)C[C@H]1OC[C@@]31OC(C)=O (stereo partly shown) [Compound 3132] | < 1
CC(=O)O[C@@]12CO[C@@H]1C[C@H](O)[C@@]1(C)C(=O)[C@H](OC(=O)C3CC3)C3=C(C)[C@@H](OC(=O)[C@H](O)[C@@H](NC(=O)OCC(C)C)c4cccs4)C[C@@](O)([C@@H](OC(=O)c4ccccc4)C12)C3(C)C (stereo partly shown) [Compound 3129] | < 10
CC(=O)OC12COC1CC(O)C1(C)C(=O)C(OC(=O)c3ccco3)C3=C(C)C(OC(=O)C(O)C(NC(=O)OC(C)(C)C)c4ccco4)CC(O)(C(OC(=O)c4ccccc4)C21)C3(C)C (stereo not shown) [Compound 2142] | < 1
CCC(=O)O[C@H]1C(=O)[C@@]2(C)C([C@H](OC(=O)c3ccccc3)[C@]3(O)C[C@H](OC(=O)[C@H](O)[C@@H](NC(=O)OC(C)(C)C)c4cccs4)C(C)=C1C3(C)C)[C@]1(OC(C)=O)CO[C@@H]1C[C@@H]2O (stereo partly shown) [Compound 0550] | < 10
CCC(=O)O[C@H]1C(=O)[C@@]2(C)C([C@H](OC(=O)c3ccccc3)[C@]3(O)C[C@H](OC(=O)[C@H](O)[C@@H](NC(=O)OC(C)(C)C)c4cccnc4)C(C)=C1C3(C)C)[C@]1(OC(C)=O)CO[C@@H]1C[C@@H]2O (stereo partly shown) [Compound 0517] | < 10
CCCC(=O)O[C@H]1C(=O)[C@@]2(C)C([C@H](OC(=O)c3ccccc3)[C@]3(O)C[C@H](OC(=O)[C@H](O)[C@@H](NC(=O)OC(C)(C)C)c4ccco4)C(C)=C1C3(C)C)[C@]1(OC(C)=O)CO[C@@H]1C[C@@H]2O (stereo partly shown) [Compound 0983] | < 1
CC(=O)O[C@@]12CO[C@@H]1C[C@H](O)[C@@]1(C)C(=O)[C@H](OC(=O)C3CC3)C3=C(C)[C@@H](OC(=O)[C@H](O)[C@@H](NC(=O)c4ccccc4)c4ccsc4)C[C@@](O)([C@@H](OC(=O)c4ccccc4)C12)C3(C)C (stereo partly shown) [Compound 2838] | < 1
CCCC(=O)O[C@H]1C(=O)[C@@]2(C)C([C@H](OC(=O)c3ccccc3)[C@]3(O)C[C@H](OC(=O)[C@H](O)[C@@H](NC(=O)OC(C)(C)C)c4ccncc4)C(C)=C1C3(C)C)[C@]1(OC(C)=O)CO[C@@H]1C[C@@H]2O (stereo partly shown) [Compound 0978] | < 1
CCOC(=O)N[C@@H](c1cccs1)[C@@H](O)C(=O)O[C@H]1C[C@@]2(O)[C@@H](OC(=O)c3ccccc3)C3[C@](C)(C(=O)[C@H](OC(=O)CC)C(=C1C)C2(C)C)[C@@H](O)C[C@H]1OC[C@@]31OC(C)=O (stereo partly shown) [Compound 3370] | < 1
CCC(=O)O[C@H]1C(=O)[C@@]2(C)C([C@H](OC(=O)c3ccccc3)[C@]3(O)C[C@H](OC(=O)[C@H](O)[C@@H](NC(=O)c4ccccc4)c4ccccn4)C(C)=C1C3(C)C)[C@]1(OC(C)=O)CO[C@@H]1C[C@@H]2O (stereo partly shown) [Compound 0634] | < 10
